# In the supplement of paper PMC10307832:
# Assays:
# Experiment in all cases: relative viability (nuclei count vs DMSO), 5 days (fraction); higher = more cells survive
# Selisistat + Phenformin = compound: C1CC(C2=C(C1)C3=C(N2)C=CC(=C3)Cl)C(=O)N [Selisistat] + N=C(N)NC(=N)NCCc1ccccc1 [Phenformin] (partner 250 µM)
# Method in brief: (§1)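 Lung cancer cell lines in 1536-well plates got either a single drug or a fixed anchor-drug dose together with five library-drug doses (not always all listed) in √10 steps, by pin tool, on the day after seeding. Nuclei were counted after 5 days, and relative viability is the treated-to-vehicle ratio of nuclei counts. Values are medians of duplicate plates.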
# Serdemetan + Pictilisib = compound: c1ccc2c(CCNc3ccc(Nc4ccncc4)cc3)c[nH]c2c1 [Serdemetan] + CS(=O)(=O)N1CCN(Cc2cc3nc(-c4cccc5[nH]ncc45)nc(N4CCOCC4)c3s2)CC1 [Pictilisib] (partner 1 µM)
# Method in brief: as §1
# Serdemetan + Trametinib = compound: c1ccc2c(CCNc3ccc(Nc4ccncc4)cc3)c[nH]c2c1 [Serdemetan] + CC(=O)Nc1cccc(-n2c(=O)n(C3CC3)c(=O)c3c(Nc4ccc(I)cc4F)n(C)c(=O)c(C)c32)c1 [Trametinib] (partner 0.02 µM)
# Method in brief: as §1
# Serdemetan + Vorinostat = compound: c1ccc2c(CCNc3ccc(Nc4ccncc4)cc3)c[nH]c2c1 [Serdemetan] + O=C(CCCCCCC(=O)Nc1ccccc1)NO [Vorinostat] (partner 1 µM)
# Method in brief: as §1
Cell Line,relative viability (Selisistat + Phenformin; first compound 0.4 µM),relative viability (Selisistat + Phenformin; first compound 1.265 µM),relative viability (Selisistat + Phenformin; first compound 4 µM),relative viability (Selisistat + Phenformin; first compound 12.65 µM),relative viability (Selisistat + Phenformin; first compound 40 µM),relative viability (Serdemetan + Pictilisib; first compound 0.04 µM),relative viability (Serdemetan + Pictilisib; first compound 0.1265 µM),relative viability (Serdemetan + Pictilisib; first compound 0.4 µM),relative viability (Serdemetan + Pictilisib; first compound 1.265 µM),relative viability (Serdemetan + Pictilisib; first compound 4 µM),relative viability (Serdemetan + Trametinib; first compound 0.04 µM),relative viability (Serdemetan + Trametinib; first compound 0.1265 µM),relative viability (Serdemetan + Trametinib; first compound 0.4 µM),relative viability (Serdemetan + Trametinib; first compound 4 µM),relative viability (Serdemetan + Vorinostat; first compound 0.04 µM),relative viability (Serdemetan + Vorinostat; first compound 0.1265 µM),relative viability (Serdemetan + Vorinostat; first compound 0.4 µM),relative viability (Serdemetan + Vorinostat; first compound 4 µM),relative viability (Serdemetan + Trametinib; first compound 1.265 µM),relative viability (Serdemetan + Vorinostat; first compound 1.265 µM)
NCI-H1666,0.514,0.606,0.582,0.538,0.529,0.412,0.413,0.525,0.531,0.465,0.887,0.854,0.836,0.672,0.896,0.935,0.907,0.713,–,–
NCI-H1734,0.442,0.377,0.324,0.382,0.356,0.466,–,0.354,0.163,0.242,0.555,0.358,0.246,0.161,0.65,0.366,0.331,0.128,0.147,0.149
NCI-H1755,0.645,0.615,0.585,0.559,0.618,0.428,0.458,0.455,0.307,0.296,0.762,0.703,0.744,0.474,0.648,0.811,0.741,0.459,0.572,0.54
NCI-H1793,0.398,0.366,–,0.303,0.388,0.302,0.415,0.31,0.163,0.199,0.447,0.375,0.346,0.267,0.808,0.671,0.439,0.397,0.227,0.286
NCI-H1915,0.377,0.356,0.368,0.355,0.368,0.966,1.01,0.921,0.811,0.985,0.3,0.309,0.286,0.242,0.538,0.535,0.513,0.509,0.257,0.508
NCI-H1944,0.209,0.201,–,0.196,0.214,0.354,0.383,0.34,–,0.338,0.424,0.39,0.332,0.278,0.485,0.628,0.635,0.294,0.274,0.339
NCI-H1975,0.419,0.422,0.366,0.41,0.382,0.302,0.355,0.317,0.338,0.31,0.403,0.381,0.331,0.371,0.718,0.725,0.697,0.687,0.305,0.743
NCI-H1993,0.518,0.545,0.528,0.556,0.537,0.815,0.884,0.809,–,0.761,0.549,0.516,0.413,0.494,0.935,0.609,0.669,0.782,0.599,0.767
NCI-H2009,0.509,0.483,0.366,0.449,0.422,0.793,0.822,0.887,0.424,0.662,0.248,0.284,0.243,0.281,0.583,0.695,0.805,0.558,0.266,0.638
NCI-H2023,0.413,0.398,0.455,0.312,0.357,0.219,0.28,0.19,0.182,0.189,0.616,0.538,0.522,0.298,0.48,0.708,0.53,0.258,0.223,0.343
NCI-H2085,0.824,0.717,0.472,0.735,0.728,0.486,0.516,0.483,0.357,0.438,0.467,0.552,0.289,0.301,0.761,0.776,0.695,0.524,0.264,0.484
NCI-H2087,0.54,0.455,–,0.44,0.472,0.961,0.966,0.814,0.493,0.422,0.223,0.185,0.191,0.169,0.864,0.316,0.527,0.213,0.168,0.226
NCI-H2126,0.516,0.489,0.499,0.537,0.551,0.552,0.473,0.428,0.521,0.542,0.59,0.557,0.577,0.604,0.806,0.913,0.628,0.659,0.512,0.669
NCI-H2170,0.413,0.417,0.4,0.432,0.458,0.365,0.34,0.311,0.28,0.349,0.912,0.988,0.87,0.944,0.828,0.834,0.806,0.876,0.9,0.733
NCI-H2228,0.301,0.271,0.205,0.295,0.307,0.322,0.26,0.327,0.257,0.214,0.564,0.523,0.327,0.172,0.588,0.542,0.573,0.219,0.115,0.244
NCI-H2347,0.4,0.438,0.228,0.382,0.276,0.718,0.517,0.71,0.69,0.464,0.286,0.253,0.289,0.25,0.648,0.53,0.703,0.414,0.259,0.334
NCI-H2405,0.401,0.333,0.222,0.393,0.397,0.457,0.403,0.491,0.42,0.41,0.709,0.655,0.64,0.558,0.968,0.973,0.91,0.846,0.587,0.788
NCI-H3122,0.406,0.367,0.294,0.369,0.371,0.627,0.669,0.6,–,0.55,0.246,0.238,0.252,0.206,1.05,0.969,0.928,0.877,0.245,0.587
PC-3 [JPC-3],0.488,0.481,0.48,0.487,0.48,0.748,0.693,–,0.705,0.735,0.708,0.634,0.663,0.684,0.877,0.807,0.671,0.835,0.67,0.626
PC-14,0.522,0.415,0.314,0.488,0.643,0.626,0.631,0.596,0.634,0.367,0.798,0.747,–,0.601,0.718,0.811,–,0.266,0.647,0.645
RERF-LC-KJ,0.5,0.412,0.399,0.338,0.362,0.433,0.561,0.569,0.475,0.388,0.896,0.874,0.898,0.778,0.687,0.611,0.609,0.654,0.793,0.71
SK-LU-1,0.504,0.528,0.465,0.542,0.625,0.572,0.47,0.713,0.494,0.407,0.485,0.464,0.444,0.44,0.746,0.821,0.746,0.451,0.332,0.598
SK-MES-1,0.683,0.718,0.681,0.695,0.681,0.333,0.378,0.377,0.363,0.205,0.48,0.538,0.531,0.563,0.962,1.08,0.889,0.71,0.532,0.962
SW 1573,0.411,0.314,0.362,0.445,0.399,0.533,0.545,0.494,0.182,0.177,0.595,0.6,0.465,0.256,0.662,0.932,0.974,0.208,0.412,0.615
UMC-11,0.337,0.303,0.302,0.288,0.303,0.813,0.866,0.824,0.47,0.737,0.703,0.672,0.619,0.656,0.412,0.445,0.37,0.335,0.388,0.268
